How the values were obtained:
LSD1 = LSD1 (Homo sapiens (Human), UniProt O60341); assay: Biochemical analysis of LSD1 histone demethylase inhibition (BPS Bioscience LSD1 fluorescence analysis kit, HRP/Amplex Red); conditions: demethylation of Lys4 of histone H3
Description: The biochemical inhibition activity of the synthesized compounds on LSD1 was measured. The activity measurement was performed using LSD1 fluorescence analysis kit (available from BPS Bioscience Co., Ltd., Catalog No: 50106). This analysis kit is designed to measure activity of LSD1 enzyme. H2O2 generated upon demethylation of Lys4 moiety of histone H3 by LSD1 is reacted with HRP/Amplex Red reagent to form fluorescent Resorufin, which is measured by this kit, thereby confirming demethylation.
The results are expressed as an IC50 value. As for a control, GSK2879552 (available from GlaxoSmithKline USA) was used.

NCI-H1417 cells = assay: Cell growth suppression test (CellTiter-Glo Luminescent Cell Viability Assay, 10 days treatment); format: cell-based; conditions: Homo sapiens, 240 h, treated for 10 days
Description: Cell growth suppression effects of the synthesized compounds on NCI-H1417 cells were identified. The cells were treated with the synthesized compounds for 10 days. Then, in order to test the cell growth suppression, CellTiter-Glo Luminescent Cell Viability Assay (available from Promega, USA) was used. This test is to measure emission signals proportional to the number of ATPs based on a fixed amount of ATPs, which represents the presence of metabolically active cells, thereby determining the number of viable cells. The results are expressed as a Gl50 value. As for a control, GSK2879552 (available from GlaxoSmithKline USA) was used.

IC50 (LSD1) [nM] | GI50 (NCI-H1417 cells) [nM] | Compound
29 | 26 | N#Cc1ccc(-c2nc3c(N4CCC[C@@H](N)C4)ccnc3n2-c2ccc(N3CCC(F)(F)C3)cc2F)cc1F [Example 26, (R)-4-(7-(3-aminopiperidine-1-yl)-3-(4-(3,3-difluoropyrrolidine-1-yl)-2-fluorophenyl)-3H-imidazo[4,5-b]pyridine-2-yl)-2-fluorobenzonitrile]
37 | 64 | N#Cc1ccc(-c2nc3c(N4CCC[C@@H](N)C4)ccnc3n2-c2ccc(N3CCCC3)cc2F)cc1F [Example 27, (R)-4-(7-(3-aminopiperidine-1-yl)-3-(2-fluoro-4-(pyrrolidine-1-yl)phenyl)-3H-imidazo[4,5-b]pyridine-2-yl)-2-fluorobenzonitrile]
40 | 37 | Cc1ccc(-n2c(-c3ccc(C#N)c(F)c3)nc3c(N4CCC[C@@H](N)C4)ccnc32)cc1 [Example 28, (R)-4-(7-(3-aminopiperidine-1-yl)-3-(p-tolyl)-3H-imidazo[4,5-b]pyridine-2-yl)-2-fluorobenzonitrile]
30 | 32 | COC1CN(c2ccc(-n3c(-c4ccc(C#N)c(F)c4)nc4c(N5CCC[C@@H](N)C5)ccnc43)c(F)c2)C1 [Example 31, (R)-4-(7-(3-aminopiperidine-1-yl)-3-(2-fluoro-4-(3-methoxyazetidine-1-yl)phenyl)-3H-imidazo[4,5-b]pyridine-2-yl)-2-fluorobenzonitrile]
38 | 46 | CC(=O)O[C@H]1CCN(c2ccc(-n3c(-c4ccc(C#N)c(F)c4)nc4c(N5CCC[C@@H](N)C5)ccnc43)c(F)c2)C1 [Example 32, (S)-1-(4-(7-((R)-3-aminopiperidine-1-yl)-2-(4-cyano-3-fluorophenyl)-3H-imidazo[4,5-b]pyridine-3-yl)-3-fluorophenyl)pyrrolidine-3-yl acetate]
26 | 26 | N#Cc1ccc(-c2nc3c(N4CCC[C@@H](N)C4)ccnc3n2-c2ccc(N3CC[C@H](Cl)C3)cc2F)cc1F [Example 36, 4-(7-((R)-3-aminopiperidine-1-yl)-3-(4-((S)-3-chloropyrrolidine-1-yl)-2-fluorophenyl)-3H-imidazo[4,5-b]pyridine-2-yl)-2-fluorobenzonitrile]
25 | 3.6 | CCO[C@H]1CCN(c2ccc(-n3c(-c4ccc(C#N)c(F)c4)nc4c(N5CCC[C@@H](N)C5)ccnc43)c(F)c2)C1 [Example 39]
30 | 5.3 | N#Cc1ccc(-c2nc3c(N4CCC[C@@H](N)C4)ccnc3n2-c2ccc(N3CC4COCC4C3)cc2F)cc1F (stereo partly drawn) [Example 49, 4-(7-((R)-3-aminopiperidine-1-yl)-3-(2-fluoro-4-(tetrahydro-1H-furo[3,4-c]pyrrole-5(3H)-yl)phenyl)-3H-imidazo[4,5-b]pyridine-2-yl)-2-fluorobenzonitrile]
100 | 32 | CO[C@H]1CCN(c2ccc(-n3c(-c4ccc(C#N)c(F)c4)nc4c(N5CCC6(CCNC6)CC5)ccnc43)c(F)c2)C1 [Example 60, (S)-2-fluoro-4-(3-(2-fluoro-4-(3-methoxypyrrolidine-1-yl)phenyl)-7-(2,8-diazaspiro[4.5]decane-8-yl)-3H-imidazo[4,5-b]pyridine-2-yl)benzonitrile]
38 | 11 | CO[C@H]1CCN(c2ccc(-n3c(-c4ccc(C#N)c(F)c4)nc4c(N5CCC6CCNC6C5)ccnc43)c(F)c2)C1 (stereo partly drawn) [Example 61, 2-fluoro-4-(3-(2-fluoro-4-((S)-3-methoxypyrrolidine-1-yl)phenyl)-7-(octahydro-6H-pyrrolo[2,3-c]pyridine-6-yl)-3H-imidazo[4,5-b]pyridine-2-yl)benzonitrile]
36 | 20 | CO[C@H]1CCN(c2ccc(-n3c(-c4ccc(C#N)c(F)c4)nc4c(N5CCC[C@H](N)C5)ccnc43)c(F)c2)C1 [Example 62, 4-(7-((S)-3-aminopiperidine-1-yl)-3-(2-fluoro-4-((S)-3-methoxypyrrolidine-1-yl)phenyl)-3H-imidazo[4,5-b]pyridine-2-yl)-2-fluorobenzonitrile]
24 | 14 | CO[C@H]1CCN(c2ccc(-n3c(-c4ccc(C#N)c(F)c4)nc4c(N5CCC(N)C5)ccnc43)c(F)c2)C1 (stereo partly drawn) [Example 64, 4-(7-(3-aminopyrrolidine-1-yl)-3-(2-fluoro-4-((S)-3-methoxypyrrolidine-1-yl)phenyl)-3H-imidazo[4,5-b]pyridine-2-yl)-2-fluorobenzonitrile]
30 | 2.7 | CO[C@H]1CCN(c2ccc(-n3c(-c4ccc(C#N)c(F)c4)nc4c(N5CCCC[C@@H](N)C5)ccnc43)c(F)c2)C1 [Example 67, 4-(7-((R)-3-aminoazepane-1-yl)-3-(2-fluoro-4-((S)-3-methoxypyrrolidine-1-yl)phenyl)-3H-imidazo[4,5-b]pyridine-2-yl)-2-fluorobenzonitrile]
